Assay: refractive index (Na D-line) (dimensionless); xn = mol fraction of the nth substance listed
Settings: 100 kPa, Liquid

CC1CCCCC1 [methylcyclohexane] + CC(C)CC(C)(C)C
refractive index
Settings | 293.15 K | 298.15 K | 303.15 K | 308.15 K | 313.15 K | 318.15 K | 323.15 K
x1 = 0.0999 | – | 1.3912 | – | 1.3876 | – | 1.3811 | 1.3789
x1 = 0.1012 | 1.395 | – | 1.3903 | – | 1.3861 | – | –
x1 = 0.1999 | – | 1.3938 | – | 1.3902 | – | 1.3844 | 1.3819
x1 = 0.2003 | 1.3975 | – | 1.3929 | – | 1.3887 | – | –
x1 = 0.2997 | – | 1.3966 | – | 1.3942 | – | 1.3871 | 1.3846
x1 = 0.3001 | 1.4 | – | 1.3958 | – | 1.3916 | – | –
x1 = 0.4 | – | 1.3997 | – | 1.3962 | – | 1.3898 | 1.3869
x1 = 0.4019 | 1.403 | – | 1.3988 | – | 1.3947 | – | –
x1 = 0.5 | – | 1.4028 | – | 1.3998 | – | 1.393 | 1.3905
x1 = 0.5008 | 1.406 | – | 1.4018 | – | 1.3978 | – | –
x1 = 0.6 | 1.409 | 1.4059 | 1.4049 | 1.4029 | 1.401 | 1.3962 | 1.3938
x1 = 0.6998 | 1.4125 | – | 1.4082 | – | 1.4043 | – | –
x1 = 0.7001 | – | 1.4092 | – | 1.4064 | – | 1.3993 | 1.397
x1 = 0.7999 | – | 1.4127 | – | 1.4097 | – | 1.403 | 1.4
x1 = 0.8 | 1.4158 | – | 1.4117 | – | 1.4077 | – | –
x1 = 0.9 | 1.4195 | 1.4161 | 1.4153 | 1.4132 | 1.4114 | 1.4066 | 1.4039
x1 = 1 | 1.4232 | 1.4199 | 1.419 | 1.4168 | 1.415 | 1.4102 | 1.4078

CCCCC1CCCCC1 [butylcyclohexane] + CC(C)CC(C)(C)C
refractive index
Settings | 293.15 K | 298.15 K | 303.15 K | 308.15 K | 313.15 K | 318.15 K | 323.15 K
x1 = 0.0999 | 1.3972 | – | 1.3928 | – | 1.3884 | – | –
x1 = 0.1008 | – | 1.3944 | – | 1.3898 | – | 1.3849 | 1.3824
x1 = 0.2 | – | 1.4001 | – | 1.3953 | – | 1.3907 | 1.3885
x1 = 0.2002 | 1.4026 | – | 1.3981 | – | 1.3935 | – | –
x1 = 0.3001 | 1.4079 | 1.4055 | 1.4034 | 1.4008 | 1.3988 | 1.3959 | 1.3943
x1 = 0.3996 | 1.413 | – | 1.4087 | – | 1.4042 | – | –
x1 = 0.3999 | – | 1.4105 | – | 1.4057 | – | 1.4015 | 1.3993
x1 = 0.5004 | – | 1.4155 | – | 1.4112 | – | 1.4069 | 1.4045
x1 = 0.5005 | 1.4181 | – | 1.4139 | – | 1.4094 | – | –
x1 = 0.5999 | – | 1.4204 | – | 1.4158 | – | 1.4118 | 1.4093
x1 = 0.6003 | 1.423 | – | 1.4186 | – | 1.4141 | – | –
x1 = 0.6994 | 1.4276 | – | 1.423 | – | 1.4185 | – | –
x1 = 0.6995 | – | 1.4249 | – | 1.4207 | – | 1.4161 | 1.4145
x1 = 0.7998 | – | 1.4295 | – | 1.4249 | – | 1.4208 | 1.4184
x1 = 0.8 | 1.4321 | – | 1.4274 | – | 1.4229 | – | –
x1 = 0.9 | – | 1.4335 | – | 1.4292 | – | 1.4248 | 1.4229
x1 = 0.9001 | 1.4362 | – | 1.4314 | – | 1.4271 | – | –
x1 = 1 | 1.4403 | 1.4377 | 1.4355 | 1.4333 | 1.4314 | 1.429 | 1.4268
